# Reference: US8796268B2, “Heteroaryls and uses thereof” (Millennium Pharmaceuticals, Inc., priority 2010, dated 2014)
# Key:
# Assay type in all cases: biochemical
# Human PI3K delta = target: T1, Human PI3K delta (Homo sapiens, UniProt O00329); assay: Human PI3K delta enzyme assay (HTRF); settings: concentration not given, b1389 states 1.0 μM for PI3K δ and γ; for inhibition at 1 µM: read-out: p110 delta Percent Inhibition
# T1 construct: His (N); host or cells: SF9 insect cells (baculovirus)
# Summary of the method: (§1)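 Compounds were mixed with 25 uM ATP, then with 3.5 uM di-C8 PI(4,5)P2 and His-tagged PI3K isoform (β 5.25 nM, δ 0.75 nM, γ 5 nM) at pH 7.00. After 30 min at room temperature, EDTA stopped the reaction and PIP3 was measured by HTRF over 1 h.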
# Human PI3K beta = target: T2, Human PI3K beta (Homo sapiens, UniProt P42338); assay: Human PI3K beta enzyme assay (HTRF); settings: concentration not given, b1387 states 1.1 μM for PI3K α and β; for inhibition at 1.1 µM: read-out: p110 beta Percent Inhibition
# T2 construct: His (N); host or cells: SF9 insect cells (baculovirus)
# Summary of the method: as §1
# Human PI3K alpha = target: T3, Human PI3K alpha (Homo sapiens, UniProt P42336); assay: Human PI3K alpha enzyme assay (HTRF); settings: concentration not given, b1387 states 1.1 μM for PI3K α and β; for inhibition at 1.1 µM: read-out: p110 alpha Percent Inhibition
# T3 construct: His (N); host or cells: SF9 insect cells (baculovirus)
# Human PI3K gamma = target: T4, Human PI3K gamma (Homo sapiens, UniProt P48736); assay: Human PI3K gamma enzyme assay (HTRF); settings: concentration not given, b1389 states 1.0 μM for PI3K δ and γ; for inhibition at 1 µM: read-out: p110 gamma Percent Inhibition
# T4 construct: His (N); host or cells: SF9 insect cells (baculovirus)
# Summary of the method: as §1
# T4 sequence (P48736 whole entry): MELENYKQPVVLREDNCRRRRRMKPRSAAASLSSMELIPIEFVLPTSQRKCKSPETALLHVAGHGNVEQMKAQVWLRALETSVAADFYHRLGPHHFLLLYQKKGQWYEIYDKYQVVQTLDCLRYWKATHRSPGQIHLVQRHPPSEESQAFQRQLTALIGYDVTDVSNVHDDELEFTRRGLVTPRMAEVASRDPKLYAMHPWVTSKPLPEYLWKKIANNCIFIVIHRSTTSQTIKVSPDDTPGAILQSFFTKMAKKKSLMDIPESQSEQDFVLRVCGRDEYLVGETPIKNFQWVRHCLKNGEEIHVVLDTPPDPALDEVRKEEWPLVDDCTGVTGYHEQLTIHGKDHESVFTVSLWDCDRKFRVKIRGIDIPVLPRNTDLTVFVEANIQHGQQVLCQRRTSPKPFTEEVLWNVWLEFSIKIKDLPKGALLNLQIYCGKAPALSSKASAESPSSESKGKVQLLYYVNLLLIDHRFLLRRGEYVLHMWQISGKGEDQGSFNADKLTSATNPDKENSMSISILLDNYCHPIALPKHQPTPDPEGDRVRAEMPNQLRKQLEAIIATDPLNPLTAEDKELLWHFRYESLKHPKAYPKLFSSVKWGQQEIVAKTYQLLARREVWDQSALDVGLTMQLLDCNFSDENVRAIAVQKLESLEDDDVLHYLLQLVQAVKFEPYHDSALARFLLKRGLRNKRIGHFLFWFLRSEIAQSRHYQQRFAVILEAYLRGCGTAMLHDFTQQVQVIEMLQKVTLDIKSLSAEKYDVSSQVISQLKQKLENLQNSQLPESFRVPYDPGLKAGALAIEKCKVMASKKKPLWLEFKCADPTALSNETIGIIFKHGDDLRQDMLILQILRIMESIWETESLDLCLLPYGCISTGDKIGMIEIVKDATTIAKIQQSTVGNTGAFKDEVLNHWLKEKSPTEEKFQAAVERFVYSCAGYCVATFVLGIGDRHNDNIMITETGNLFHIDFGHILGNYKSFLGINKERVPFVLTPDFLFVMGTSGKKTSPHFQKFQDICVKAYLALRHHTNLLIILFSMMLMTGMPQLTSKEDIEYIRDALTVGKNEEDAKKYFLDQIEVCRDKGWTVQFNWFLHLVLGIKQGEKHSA
# T2 sequence (P42338 whole entry): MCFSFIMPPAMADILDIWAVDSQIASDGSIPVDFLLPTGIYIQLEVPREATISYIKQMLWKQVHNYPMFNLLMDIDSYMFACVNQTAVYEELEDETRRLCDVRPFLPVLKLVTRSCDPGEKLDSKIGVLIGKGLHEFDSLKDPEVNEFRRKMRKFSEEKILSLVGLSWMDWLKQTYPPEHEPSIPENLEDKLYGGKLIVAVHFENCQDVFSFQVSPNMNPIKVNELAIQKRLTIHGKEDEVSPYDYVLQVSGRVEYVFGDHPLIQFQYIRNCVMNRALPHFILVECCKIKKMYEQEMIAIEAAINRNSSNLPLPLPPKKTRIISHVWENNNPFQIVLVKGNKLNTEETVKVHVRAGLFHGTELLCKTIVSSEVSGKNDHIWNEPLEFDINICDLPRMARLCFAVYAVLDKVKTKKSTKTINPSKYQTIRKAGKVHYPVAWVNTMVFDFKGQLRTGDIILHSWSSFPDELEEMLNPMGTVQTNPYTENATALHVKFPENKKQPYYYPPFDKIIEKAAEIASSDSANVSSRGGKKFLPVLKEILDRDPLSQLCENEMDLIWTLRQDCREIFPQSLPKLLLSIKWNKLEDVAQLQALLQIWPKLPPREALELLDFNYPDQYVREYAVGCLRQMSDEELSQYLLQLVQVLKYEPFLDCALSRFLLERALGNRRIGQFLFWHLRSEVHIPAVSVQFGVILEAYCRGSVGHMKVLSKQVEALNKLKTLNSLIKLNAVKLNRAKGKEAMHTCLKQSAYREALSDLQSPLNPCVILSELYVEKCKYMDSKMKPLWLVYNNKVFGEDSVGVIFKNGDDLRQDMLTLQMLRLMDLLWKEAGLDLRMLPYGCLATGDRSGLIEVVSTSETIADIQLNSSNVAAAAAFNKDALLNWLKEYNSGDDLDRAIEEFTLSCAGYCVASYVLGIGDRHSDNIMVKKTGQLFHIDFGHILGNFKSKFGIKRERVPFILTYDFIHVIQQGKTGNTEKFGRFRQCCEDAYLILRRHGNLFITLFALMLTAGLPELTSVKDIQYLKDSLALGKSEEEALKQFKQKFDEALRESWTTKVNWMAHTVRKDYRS
# T2 sequence (P27986 whole entry partner): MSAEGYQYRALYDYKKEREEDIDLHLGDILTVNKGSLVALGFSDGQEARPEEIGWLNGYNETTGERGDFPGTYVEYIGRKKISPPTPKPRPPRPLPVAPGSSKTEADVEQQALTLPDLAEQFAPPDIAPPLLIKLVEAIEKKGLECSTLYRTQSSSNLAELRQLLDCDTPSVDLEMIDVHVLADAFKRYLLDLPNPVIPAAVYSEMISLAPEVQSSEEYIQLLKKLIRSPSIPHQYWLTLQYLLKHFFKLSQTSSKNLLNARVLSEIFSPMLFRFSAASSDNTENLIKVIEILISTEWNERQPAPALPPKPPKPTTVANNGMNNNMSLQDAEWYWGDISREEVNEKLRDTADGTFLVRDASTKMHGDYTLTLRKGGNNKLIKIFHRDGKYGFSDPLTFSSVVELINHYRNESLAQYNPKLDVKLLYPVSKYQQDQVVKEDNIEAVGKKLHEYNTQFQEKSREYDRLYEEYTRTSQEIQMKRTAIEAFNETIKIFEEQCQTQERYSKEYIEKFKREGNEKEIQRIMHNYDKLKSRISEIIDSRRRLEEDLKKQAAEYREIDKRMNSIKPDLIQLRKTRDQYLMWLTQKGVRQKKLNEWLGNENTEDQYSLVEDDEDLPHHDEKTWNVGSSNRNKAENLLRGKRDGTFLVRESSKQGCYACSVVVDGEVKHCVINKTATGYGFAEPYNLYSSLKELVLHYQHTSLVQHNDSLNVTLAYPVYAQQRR
# T3 sequence (P42336 whole entry): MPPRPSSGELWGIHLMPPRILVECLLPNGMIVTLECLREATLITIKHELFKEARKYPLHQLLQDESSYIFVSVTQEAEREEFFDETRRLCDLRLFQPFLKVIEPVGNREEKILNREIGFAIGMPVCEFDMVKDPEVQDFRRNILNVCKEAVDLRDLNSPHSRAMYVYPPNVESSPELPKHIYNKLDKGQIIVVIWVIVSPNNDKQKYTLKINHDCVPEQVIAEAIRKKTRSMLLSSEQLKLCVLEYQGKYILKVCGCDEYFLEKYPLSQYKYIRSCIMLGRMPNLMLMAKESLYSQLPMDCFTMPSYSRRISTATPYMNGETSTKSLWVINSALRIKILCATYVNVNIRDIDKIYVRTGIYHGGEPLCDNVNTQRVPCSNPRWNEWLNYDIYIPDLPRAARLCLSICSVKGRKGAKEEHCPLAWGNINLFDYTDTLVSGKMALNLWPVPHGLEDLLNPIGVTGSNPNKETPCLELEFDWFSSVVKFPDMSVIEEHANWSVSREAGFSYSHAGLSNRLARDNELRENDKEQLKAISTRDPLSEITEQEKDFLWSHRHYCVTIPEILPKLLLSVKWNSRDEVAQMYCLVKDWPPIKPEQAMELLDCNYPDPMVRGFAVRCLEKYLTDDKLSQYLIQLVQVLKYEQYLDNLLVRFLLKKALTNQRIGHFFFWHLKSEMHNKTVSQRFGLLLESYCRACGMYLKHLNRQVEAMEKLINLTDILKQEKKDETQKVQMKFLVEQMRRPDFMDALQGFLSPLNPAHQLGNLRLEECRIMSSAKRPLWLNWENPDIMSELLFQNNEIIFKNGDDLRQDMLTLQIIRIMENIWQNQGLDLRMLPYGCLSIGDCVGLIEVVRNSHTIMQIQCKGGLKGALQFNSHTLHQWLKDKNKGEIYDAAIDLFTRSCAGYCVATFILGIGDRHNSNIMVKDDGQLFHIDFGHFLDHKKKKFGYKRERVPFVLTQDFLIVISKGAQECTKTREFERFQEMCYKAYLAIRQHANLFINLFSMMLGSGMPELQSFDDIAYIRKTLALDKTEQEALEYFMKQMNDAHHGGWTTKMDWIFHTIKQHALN
# T3 sequence (P27986 whole entry partner): as the sequence (P27986 whole entry partner) above
# T1 sequence (O00329 whole entry): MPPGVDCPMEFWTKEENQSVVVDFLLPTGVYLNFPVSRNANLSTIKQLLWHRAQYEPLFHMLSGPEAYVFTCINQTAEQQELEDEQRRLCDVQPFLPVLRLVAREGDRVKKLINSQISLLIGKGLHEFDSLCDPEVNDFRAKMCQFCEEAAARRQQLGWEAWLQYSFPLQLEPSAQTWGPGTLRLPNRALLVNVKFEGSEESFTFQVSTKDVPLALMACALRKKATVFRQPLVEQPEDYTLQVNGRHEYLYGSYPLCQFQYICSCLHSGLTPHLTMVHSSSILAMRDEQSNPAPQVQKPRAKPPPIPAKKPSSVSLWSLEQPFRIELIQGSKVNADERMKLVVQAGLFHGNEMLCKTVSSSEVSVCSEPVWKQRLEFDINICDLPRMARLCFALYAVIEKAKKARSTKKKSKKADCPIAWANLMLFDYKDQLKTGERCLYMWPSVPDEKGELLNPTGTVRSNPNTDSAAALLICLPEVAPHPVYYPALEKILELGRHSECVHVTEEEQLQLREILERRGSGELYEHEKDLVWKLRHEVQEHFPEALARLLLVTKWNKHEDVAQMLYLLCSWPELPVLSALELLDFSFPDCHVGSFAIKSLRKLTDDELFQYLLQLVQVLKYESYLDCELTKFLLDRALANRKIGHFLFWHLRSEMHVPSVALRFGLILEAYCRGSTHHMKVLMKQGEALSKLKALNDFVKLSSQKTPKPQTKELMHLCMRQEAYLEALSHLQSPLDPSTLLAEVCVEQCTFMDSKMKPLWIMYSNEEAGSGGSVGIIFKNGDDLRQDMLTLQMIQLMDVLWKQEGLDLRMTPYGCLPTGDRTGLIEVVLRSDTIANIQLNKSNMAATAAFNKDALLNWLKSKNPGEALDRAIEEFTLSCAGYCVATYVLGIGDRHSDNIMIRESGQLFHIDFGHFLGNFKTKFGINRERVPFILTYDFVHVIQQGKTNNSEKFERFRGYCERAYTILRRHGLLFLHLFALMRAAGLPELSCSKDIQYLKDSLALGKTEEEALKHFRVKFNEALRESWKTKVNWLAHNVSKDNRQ
# T1 sequence (P27986 whole entry partner): as the sequence (P27986 whole entry partner) above
Structure (SMILES),inhibition at 1 µM (Human PI3K delta) [%],inhibition at 1.1 µM (Human PI3K beta) [%],inhibition at 1.1 µM (Human PI3K alpha) [%],inhibition at 1 µM (Human PI3K gamma) [%],p110 delta Percent Inhibition (Human PI3K delta) [%],p110 beta Percent Inhibition (Human PI3K beta) [%],p110 alpha Percent Inhibition (Human PI3K alpha) [%],p110 gamma Percent Inhibition (Human PI3K gamma) [%]
CC(=O)Nc1cc(-c2nc(Cc3ccc4ccccc4c3)c(-c3nnc[nH]3)s2)ccn1 [Compound 213],109,80,57,35,,,,
OC(c1ccc(-c2cccnc2)cc1)c1cc(-c2ccncc2)sc1-c1nnc[nH]1 (stereo not drawn) [Compound 214],46,84,46,14,,,,
OC(c1ccc2c(c1)OCCO2)c1cc(-c2ccncc2)sc1-c1nnc[nH]1 (stereo not drawn) [Compound 215],51,85,29,8,,,,
OC(c1ccccc1Cl)c1cc(-c2ccncc2)sc1-c1nnc[nH]1 (stereo not drawn) [Compound 217],60,74,30,24,,,,
CC(=O)Nc1cc(-c2sc(-c3nnc[nH]3)c(C(c3ccc(Cl)cc3)N3CCNCC3)c2C#N)ccn1 (stereo not drawn) [Compound 218],97,102,61,14,,,,
OC(c1ccc(Cl)cc1Cl)c1cc(-c2ccncc2)sc1-c1nnc[nH]1 (stereo not drawn) [Compound 219],107,101,32,31,,,,
CC(=O)Nc1cc(-c2cc(/C(=C/CCN(C)C)c3ccc(Cl)cc3)c(-c3nnc[nH]3)s2)ccn1 [Compound 225],84,52,51,51,,,,
N#Cc1c(-c2ccnnc2)sc(-c2nnc[nH]2)c1C(c1ccc(Cl)cc1)N1CCNCC1 (stereo not drawn) [Compound 227],24,76,-2,3,,,,
OC(c1cc(-c2ccncc2)sc1-c1nnc[nH]1)c1cccc2ccccc12 (stereo not drawn) [Compound 228],57,94,24,11,,,,
CC(=O)Nc1cc(-c2nc(C(c3ccc(Cl)cc3)N3CCNCC3)c(-c3nnc[nH]3)s2)ccn1 (stereo not drawn) [Compound 229],106,105,62,16,,,,
OC(c1ccc(Br)cc1)c1cc(-c2ccncc2)sc1-c1nnc[nH]1 (stereo not drawn) [Compound 231],77,104,34,47,,,,
OC(c1ccc(Cl)c(F)c1)c1cc(-c2ccncc2)sc1-c1nnc[nH]1 (stereo not drawn) [Compound 232],67,105,38,26,,,,
OC(c1cc(-c2ccncc2)sc1-c1nnc[nH]1)c1cccc(F)c1F (stereo not drawn) [Compound 235],66,101,65,17,,,,
OC(c1ccc(-c2cncnc2)cc1)c1cc(-c2ccncc2)sc1-c1nnc[nH]1 (stereo not drawn) [Compound 236],48,53,11,10,,,,
COc1cccc(F)c1C(O)c1cc(-c2ccncc2)sc1-c1nnc[nH]1 (stereo not drawn) [Compound 239],41,68,30,27,,,,
CCN(CC)C(c1ccc(Cl)cc1)c1cc(-c2ccnc(Cl)c2)sc1-c1nnc[nH]1 (stereo not drawn) [Compound 243],45,66,12,4,,,,
COc1ccc(C(O)c2cc(-c3ccncc3)sc2-c2nnc[nH]2)cc1OC (stereo not drawn) [Compound 246],43,81,15,8,,,,
OC(c1ccc(-c2ncccn2)cc1)c1cc(-c2ccncc2)sc1-c1nnc[nH]1 (stereo not drawn) [Compound 252],60,85,58,12,,,,
Nc1cc(-c2cc(C(c3ccc(Cl)cc3)N3CCNCC3)c(-c3nnc[nH]3)s2)ccn1 (stereo not drawn) [Compound 254],91,96,49,8,,,,
"NCc1c[nH]c(-c2sc(-c3ccncc3)nc2Cc2ccc(Cl)cc2)n1 [Compound 255, (2-(4-(4-chlorobenzyl)-2-(pyridin-4-yl)thiazol-5-yl)-1H-imidazol-4-yl)methanamine]",,,,,39,55,0,5
OC(c1ccc2c(c1)OCO2)c1cc(-c2ccncc2)sc1-c1nnc[nH]1 (stereo not drawn) [Compound 256],57,87,25,8,,,,
OC(c1ccc2ncccc2c1)c1cc(-c2ccncc2)sc1-c1nnc[nH]1 (stereo not drawn) [Compound 257],68,97,31,30,,,,

# Continued, values first:
inhibition at 1 µM (Human PI3K delta) [%],inhibition at 1.1 µM (Human PI3K beta) [%],inhibition at 1.1 µM (Human PI3K alpha) [%],inhibition at 1 µM (Human PI3K gamma) [%],p110 delta Percent Inhibition (Human PI3K delta) [%],p110 beta Percent Inhibition (Human PI3K beta) [%],p110 alpha Percent Inhibition (Human PI3K alpha) [%],p110 gamma Percent Inhibition (Human PI3K gamma) [%],Structure (SMILES)
112,109,87,38,,,,,CC(=O)Nc1cc(-c2cc(C(c3ccc(Cl)cc3)N3CC[C@@H](O)C3)c(-c3nnc[nH]3)s2)ccn1 (stereo partly drawn) [Compound 212]
99,91,64,11,,,,,CC(=O)Nc1cc(-c2cc(C(c3ccc(Cl)cc3)N3CC(F)(F)C3)c(-c3nnc[nH]3)s2)ccn1 (stereo not drawn) [Compound 216]
99,91,92,9,,,,,COC(c1ccc(Cl)cc1)c1cc(-c2ccnc(NC(C)=O)c2)sc1-c1nnc[nH]1 (stereo not drawn) [Compound 220]
100,94,62,8,,,,,CC(=O)Nc1cc(-c2cc(C(c3ccc(Cl)cc3)N3CCC(F)(F)CC3)c(-c3nnc[nH]3)s2)ccn1 (stereo not drawn) [Compound 221]
102,98,68,9,,,,,CC(=O)Nc1cc(-c2cc(C(c3ccc(Cl)cc3)N(C)C3CCNCC3)c(-c3nnc[nH]3)s2)ccn1 (stereo not drawn) [Compound 222]
102,94,67,21,,,,,CC(=O)Nc1cc(-c2cc(C(c3ccc(Cl)cc3)N3CC[C@@H](CO)C3)c(-c3nc[nH]n3)s2)ccn1 (stereo partly drawn) [Compound 223]
103,92,70,15,,,,,CC(=O)Nc1cc(-c2cc(C(c3ccc(Cl)cc3)N3CCN(S(C)(=O)=O)CC3)c(-c3nnc[nH]3)s2)ccn1 (stereo not drawn) [Compound 224]
93,98,46,14,,,,,CC(=O)Nc1cc(-c2cc(C(NCCO)c3ccc(Cl)cc3)c(-c3nnc[nH]3)s2)ccn1 (stereo not drawn) [Compound 226]
102,93,57,29,,,,,CC(=O)Nc1cc(-c2cc(C(c3ccc(Cl)cc3)N3CCCC3)c(-c3nnc[nH]3)s2)ccn1 (stereo not drawn) [Compound 230]
104,100,60,10,,,,,CC(=O)Nc1cc(-c2cc(C(NCC3CCNC3)c3ccc(Cl)cc3)c(-c3nnc[nH]3)s2)ccn1 (stereo not drawn) [Compound 234]
96,88,72,11,,,,,CC(=O)Nc1cc(-c2nc(C(O)c3ccc(Cl)cc3)c(-c3nnc[nH]3)s2)ccn1 (stereo not drawn) [Compound 238]
98,79,52,8,,,,,CC(=O)Nc1cc(-c2cc(C(NCC3CCCC3)c3ccc(Cl)cc3)c(-c3nnc[nH]3)s2)ccn1 (stereo not drawn) [Compound 240]
112,104,81,36,,,,,CC(=O)Nc1cc(-c2cc(C(OC[C@@H]3CCCN3)c3ccc(Cl)cc3)c(-c3nnc[nH]3)s2)ccn1 (stereo partly drawn) [Compound 242]
101,101,77,14,,,,,CC(=O)Nc1cc(-c2cc(C(NC(C)C)c3ccc(Cl)cc3)c(-c3nnc[nH]3)s2)ccn1 (stereo not drawn) [Compound 244]
104,105,83,21,,,,,CC(=O)Nc1cc(-c2cc(C(c3ccc(Cl)cc3)N3CC4(COC4)C3)c(-c3nnc[nH]3)s2)ccn1 (stereo not drawn) [Compound 247]
109,106,89,35,,,,,CC(=O)Nc1cc(-c2cc(C(c3ccc(Cl)cc3)N3CCOCC3)c(-c3nnc[nH]3)s2)ccn1 (stereo not drawn) [Compound 248]
44,96,14,12,,,,,Clc1ccc(C(c2cc(-c3ccnc(Cl)c3)sc2-c2nnc[nH]2)N2CCC2)cc1 (stereo not drawn) [Compound 251]
